Biological target: SfCht5 (S. frugiperda chitinase 5; rSfCht5) (Spodoptera frugiperda, UniProt A0A8K1Z7B3)
Experiment: residual endochitinase activity with synthetic substrate
Format: biochemical

SfCht5 (S. frugiperda chitinase 5; rSfCht5), sequence (A0A8K1Z7B3 21-555): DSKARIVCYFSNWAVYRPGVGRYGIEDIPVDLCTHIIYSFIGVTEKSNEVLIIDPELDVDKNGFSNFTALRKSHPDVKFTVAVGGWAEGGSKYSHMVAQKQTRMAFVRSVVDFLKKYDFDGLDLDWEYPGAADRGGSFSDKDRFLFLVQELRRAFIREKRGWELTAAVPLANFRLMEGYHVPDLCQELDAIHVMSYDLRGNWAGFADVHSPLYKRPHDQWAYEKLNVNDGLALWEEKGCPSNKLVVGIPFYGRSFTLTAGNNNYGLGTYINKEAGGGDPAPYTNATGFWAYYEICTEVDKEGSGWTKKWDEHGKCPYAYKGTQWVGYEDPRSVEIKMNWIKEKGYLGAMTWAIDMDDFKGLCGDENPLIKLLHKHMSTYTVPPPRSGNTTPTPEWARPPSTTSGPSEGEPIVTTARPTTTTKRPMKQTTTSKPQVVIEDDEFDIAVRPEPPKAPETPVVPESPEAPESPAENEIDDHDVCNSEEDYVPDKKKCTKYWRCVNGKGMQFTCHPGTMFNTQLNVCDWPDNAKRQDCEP

COc1ccc2cc3[n+](cc2c1OC)CCc1cc2c(cc1-3)OCO2 [berberine, 9,10-Dimethoxy-5,6-dihydro-[1,3] dioxolo[4,5-g]isoquinolino[3,2-a]isoquinolin-7-ium chloride dihydrate]
IC50: ~158 µM

— paper PMC10914475 (iScience, 2024)
